Assay: Plasma stability assay (PLS), mouse
Type: in vitro ADME
Conditions: pH 7.4, 37° C., read-out: PLS (mouse) T1/2
Procedure: Stability of the assay compound in normal mouse plasma was studied.
1. Before the assay, the coagulated frozen plasma was thawed in a 37° C. water bath. The plasma was centrifuged at 4000 rpm for 5 minutes. If there were blood clots, the blood clots were removed. The pH value was adjusted to 7.4±0.1.
2. Preparation of assay compound solution: An assay compound was dissolved in DMSO to prepare a 100 μM solution.
3. 98 μL of blank control plasma was added to 2 μL of the assay compound solution (100 μM), so that the final concentration of the mixed solution reached 2 μM. The mixed solution was incubated in a 37° C. water bath.
4. 100 μL of H3PO4 solution and 800 μL of stop solution (a solution of 200 ng/ml tolbutamide and 200 ng/ml labetalol in 100% methanol) were added at each time point (0, 10, 30, 60 and 120 min), respectively, to precipitate proteins, and mixed thoroughly.
5. The sample was centrifuged at 4000 rpm for 20 min. 100 μL of supernatant from each well was taken for LC-MS/MS analysis.

## CC(C)C[C@H](NC(=O)[C@H](CC(C)C)NC(=O)[C@H](Cc1c[nH]c2ccccc12)NC(=O)[C@H](CCC(=O)O)NC(=O)[C@@H](NC(=O)[C@H](Cc1ccccc1)NC(=O)[C@H](CCC(=O)O)NC(=O)[C@@H]1CCCCNC(=O)CN(C(=O)COCCOCCNC(=O)COCCOCCNC(=O)CC[C@H](NC(=O)CCCCCCCCCCCCCCCCCCC(=O)O)C(=O)O)CC(=O)NCCCC[C@H](NC(=O)[C@H](CCC(=O)O)NC(=O)[C@H](CC(=O)O)NC(=O)[C@H](CC(C)C)NC(=O)[C@H](Cc2ccc(O)cc2)NC(=O)[C@H](CCCCN)NC(=O)[C@H](CO)NC(=O)[C@H](Cc2ccc(O)cc2)NC(=O)[C@H](CC(=O)O)NC(=O)[C@H](CO)NC(=O)[C@@H](NC(=O)[C@H](Cc2ccccc2)NC(=O)[C@@H](NC(=O)CNC(=O)[C@H](CCC(N)=O)NC(=O)C(C)(C)NC(=O)[C@@H](N)Cc2c[nH]cn2)[C@@H](C)O)[C@@H](C)O)C(=O)N[C@@H](CCCCN)C(=O)N[C@@H](C)C(=O)N1)C(C)C)C(=O)N[C@@H](CCC(=O)O)C(=O)NCC(=O)NCC(=O)N1CCC[C@H]1C(=O)N[C@@H](CO)C(=O)N[C@@H](CO)C(=O)NCC(N)=O [WX001]
  half-life at 2 μM: > 4.82 h
